Results on one compound are retold here after patent US20170087149A9, “TREATMENT FOR […]” (priority 2013, published 2017).

For the test, the system named is collapsing trachea. Briefly: Treatment of collapsing trachea in dogs (case reports). The format is in vivo, dog. As to conditions: Pomeranian. The protocol:
Upon presentation, the patient had severe dyspnea and coughing.
Oxycodone sustained release was prescribed, 10 mg twice daily. […] When appetite returned (along with resumed coughing) the patient's dosage was adjusted to 2.5 mg twice daily (cutting the 10 mg tablets in quarters). […] On two occasions when the beginning of a cough was observed, a single additional 2.5 mg tablet was administered, followed by return to the original twice-daily dosing regimen.
The treatment described in Example 1 has been successfully repeated in two additional dogs diagnosed as having collapsing trachea.

Consider `O=C(O)C(O)C(O)C(=O)O.Oc1ccc2c(c1)[C@@]13CCCC[C@@]1(O)[C@@H](C2)N(CC1CCC1)CC3` [Torbutrol, butorphenol], for which, for the setting “history before presentation”, the “cough (prior treatment, history)” value was “had been controlling the cough”; the “exercise tolerance and panting (prior treatment, history)” value is “highly intolerant to exercise (to the point of having to be carried) and continuously panting”. Further, the “response at presentation (refractory stage)” value (severe intrathoracic collapsing trachea at presentation) is recorded as “stopped responding”.
